In ChEMBL document CHEMBL5661943, “ASAP - In vitro antiviral effect” (2024):
“And” between values parts separate entries of the source, which are not always exact repeats. Equal values may be shown once.

What was measured:
dengue virus type 2 [1] = experiment: Functional immunofluorescence assay to measure dose dependent changes in antiviral-drug inhibitory efficacy against Dengue virus type 2 Thailand/16681/84 in Vero E6/TMPRSS2 cells (cotreated with P-gp inhibitor, Elacridar). Cells are treated with antiviral candidates that are serially diluted, following infection, cells are fixed. EC50 is reported via analysis of immunofluorescence staining. The assay has been performed by Icahn School of Medicine at Mount Sinai.; assay type: organism-based, Chlorocebus sabaeus, VeroE6/TMPRSS2; details: for EC90: P-gp concentration 2 uM, P-gp inhibitor Elacidar
Zika virus [2] = experiment: Functional immunofluorescence assay to measure dose dependent changes in antiviral-drug inhibitory efficacy against Zika virus PRVABC59 in Vero E6/TMPRSS2 cells. Cells are treated with antiviral candidates that are serially diluted, following infection, cells are fixed. EC50 is reported via analysis of immunofluorescence staining. The assay has been performed by Icahn School of Medicine at Mount Sinai.; assay type: organism-based, Chlorocebus sabaeus; details: VeroE6/TMPRSS2
Zika virus [3] = experiment: EC50 is reported via analysis of immunofluorescence staining. The assay has been performed by Icahn School of Medicine at Mount Sinai.; assay type: functional, organism-based, Chlorocebus sabaeus, VeroE6/TMPRSS2; details: Baseline response 0 %, Maximum response 100 %, P-gp concentration 2 uM, P-gp inhibitor Elacidar
dengue virus type 2 [4] = experiment: Functional immunofluorescence assay to measure dose dependent changes in antiviral-drug inhibitory efficacy against Dengue virus type 2 Thailand/16681/84 in Vero E6/TMPRSS2 cells. Cells are treated with antiviral candidates that are serially diluted, following infection, cells are fixed. EC50 is reported via analysis of immunofluorescence staining. The assay has been performed by Icahn School of Medicine at Mount Sinai.; assay type: organism-based, Chlorocebus sabaeus
Zika virus [5] = experiment: Functional CPE-based assay to measure dose dependent changes in antiviral-drug inhibitory efficacy against Zika virus MR766 in Vero E6 miRFP670 cells. Cells are treated with antiviral candidates that are serially diluted. EC50 is reported via analysis of MTS assay as a readout of CPE. The assay has been performed by KU Leuven.; assay type: organism-based, Chlorocebus sabaeus, Vero C1008; details: Zika virus
dengue virus type 2 [6] = experiment: Functional CPE-based assay to measure dose dependent changes in antiviral-drug inhibitory efficacy against Dengue virus type 2 New Guinea C in Huh7 cells. Cells are treated with antiviral candidates that are serially diluted. EC50 is reported via analysis of MTT/MTS assay as a readout of CPE. The assay has been performed by National Institute of Allergy and Infectious Diseases.; assay type: organism-based, Homo sapiens; details: Huh-7
Zika virus [7] = experiment: Functional CPE-based assay to measure dose dependent changes in antiviral-drug inhibitory efficacy against Zika virus MR766 in Vero E6 miRFP670 cells (cotreated with P-gp inhibitor, CP100356). Cells are treated with antiviral candidates that are serially diluted. EC50 is reported via analysis of MTS assay as a readout of CPE. The assay has been performed by KU Leuven.; assay type: organism-based, Chlorocebus sabaeus, Vero C1008; details: Zika virus, Vero C1008
dengue virus type 2 [8] = experiment: Functional assay to measure dose dependent changes in antiviral-drug inhibitory efficacy against Dengue virus type 2 New Guinea C in Vero E6 miRFP670 cells (cotreated with P-gp inhibitor, CP100356). Cells are treated with antiviral candidates that are serially diluted, following infection, cells are fixed. EC50 is reported via analysis of fluorescence intensity using high-content imager. The …; assay type: organism-based, Chlorocebus sabaeus, Vero C1008; details: for EC90: P-gp concentration 500 nM, P-gp inhibitor CP100356

## COc1cc(N[C@@H](C(=O)c2c[nH]c3ccc(OC(F)(F)F)cc23)c2ccc(Cl)cc2OC)cc(S(C)(=O)=O)c1
Dengue virus type 2 [1]; Baseline response 0 %, EC90 CI (lower) 0.626 uM, EC90 CI (upper) 1511.53 uM, Hill slope 3.662, Maximum measured 12.805 %, Maximum response 100 %, Minimum measured 0.049 %, R squared 0.652
  EC90: 9.27 µM
Dengue virus type 2 [1]; Baseline response 0 %, EC90 CI (lower) […] uM, EC90 CI (upper) […] uM, Hill slope -1.863, Maximum measured 115.571 %, Maximum response 100 %, Minimum measured 6.648 %, R squared 0.785
  EC90: 0.061 µM
Dengue virus type 2 [1]; Baseline response 0 %, Hill slope 1.613, Maximum measured 7.031 %, Maximum response 100 %, Minimum measured 0.609 %, R squared 0.305
  EC90: < 0.005 µM
Dengue virus type 2 [1]; Baseline response 0 %, Hill slope 2.619, Maximum measured 1.603 %, Maximum response 100 %, Minimum measured 0.015 %, R squared 0.655
  EC90: < 0.005 µM
Dengue virus type 2 [1]; Baseline response 0 %, Hill slope 2.624, Maximum measured 9.128 %, Maximum response 100 %, Minimum measured 0.482 %, R squared 0.941
  EC90: < 0.005 µM
Dengue virus type 2 [1]; Baseline response 0 %, Hill slope -0.067, Maximum measured 1.374 %, Maximum response 100 %, Minimum measured 0.665 %, R squared 0.06
  EC90: < 0.005 µM
Dengue virus type 2 [1]; Baseline response 0 %, Hill slope -0.101, Maximum measured 7.568 %, Maximum response 100 %, Minimum measured 3.136 %, R squared 0.228
  EC90: < 0.005 µM
Dengue virus type 2 [1]; Dengue virus, VeroE6/TMPRSS2, Maximum measured 1.671 %, Minimum measured 0.643 %
  EC90: < 0.005 µM
Dengue virus type 2 [1]; veroe6/tmprss2
  EC50: < 5 nM and 19 nM
Zika virus [2]
  EC50: 546 nM
  EC90: 2790 nM
Zika virus [3]; EC90 CI (lower) 0.002 uM, EC90 CI (upper) 0.172 uM, Hill slope -0.792, Maximum measured 161.955 %, Minimum measured 5.205 %, R squared 0.677
  EC90: 4830 nM
Zika virus [3]; EC90 CI (lower) 0.029 uM, EC90 CI (upper) 0.11 uM, Hill slope -0.824, Maximum measured 111.518 %, Minimum measured 7.6 %, R squared 0.806
  EC90: > 10000 nM
Zika virus [3]; EC90 CI (lower) 0.389 uM, EC90 CI (upper) 1.092 uM, Hill slope -2.761, Maximum measured 123.481 %, Minimum measured 14.219 %, R squared 0.888
  EC90: 3200 nM
Zika virus [3]; Hill slope -12.116, Maximum measured 127.26 %, Minimum measured 45.283 %, R squared 0.53
  EC90: > 3330 nM
Zika virus [3]; Hill slope -12.74, Maximum measured 124.12 %, Minimum measured 2.277 %, R squared 0.501
  EC90: 3790 nM
Zika virus [3]; Hill slope -15.757, Maximum measured 117.305 %, Minimum measured 4.138 %, R squared 0.906
  EC90: 1100 nM
Zika virus [3]; Hill slope -17.776, Maximum measured 116.903 %, Minimum measured 2.275 %, R squared 0.837
  EC90: 3170 nM
Zika virus [3]; Hill slope -18.67, Maximum measured 119.05 %, Minimum measured 1.241 %, R squared 0.846
  EC90: 3280 nM
Dengue virus type 2 [4]; VeroE6/TMPRSS2
  EC50: < 5 nM
Dengue virus type 2 [4]; VeroE6/TMPRSS2, Baseline response 0 %, Hill slope -0.076, Maximum measured 4.343 %, Maximum response 100 %, Minimum measured 1.659 %, R squared 0.062
  EC90: < 5 nM
Zika virus [5]; Vero C1008, Baseline response 0 %, Hill slope 9.978, Maximum measured 3.488 %, Maximum response 100 %, Minimum measured -3.611 %, R squared 0.038
  EC90: > 50000 nM
Zika virus [5]; Vero C1008, Baseline response 0 %, Hill slope 52.791, Maximum measured 104.354 %, Maximum response 100 %, Minimum measured 0.394 %, R squared 0.996
  EC90: 452 nM
Zika virus [5]; Vero C1008, Baseline response 0 %, Hill slope -0.752, Maximum measured 14.519 %, Maximum response 100 %, Minimum measured -4.788 %, R squared 0.067
  EC90: < 391 nM
Zika virus [5]; Vero C1008, Baseline response 0 %, Hill slope -0.757, Maximum measured 74.834 %, Maximum response 100 %, Minimum measured -5.889 %, R squared 0.129
  EC90: < 391 nM
Zika virus [5]; Vero C1008, Baseline response 0 %, Hill slope -0.835, Maximum measured 99.922 %, Maximum response 100 %, Minimum measured -10.847 %, R squared 0.106
  EC90: < 391 nM
Zika virus [5]; Vero C1008, Maximum measured 8.337 %, Minimum measured -6.427 %
  EC90: > 50000 nM
Zika virus [5]; Vero C1008, Baseline response 0 %, EC90 CI (lower) 10.077 uM, EC90 CI (upper) 13.839 uM, Hill slope 6.588, Maximum measured 92.835 %, Maximum response 100 %, Minimum measured -3.07 %, R squared 0.987
  EC90: 11800 nM
Dengue virus type 2 [6]
  EC50: < 10 nM
Zika virus [7]
  EC50: 726 nM
Zika virus [7]; Baseline response 0 %, Hill slope 17.55, Maximum measured 78.36 %, Maximum response 100 %, Minimum measured -4.751 %, P-gp concentration 500 nM, R squared 0.965, P-gp inhibitor CP100356
  EC90: > 781 nM
Dengue virus type 2 [8]; Baseline response 0 %, Hill slope 0.131, Maximum measured 1.754 %, Maximum response 100 %, Minimum measured 0.009 %, R squared 0.032
  EC90: < 391 nM
Dengue virus type 2 [8]; Baseline response 0 %, Hill slope 0.182, Maximum measured 0.608 %, Maximum response 100 %, Minimum measured 0.03 %, R squared 0.035
  EC90: < 391 nM
Dengue virus type 2 [8]; Baseline response 0 %, Hill slope 0.299, Maximum measured 0.369 %, Maximum response 100 %, Minimum measured 0.02 %, R squared 0.601
  EC90: < 391 nM
Dengue virus type 2 [8]; Baseline response 0 %, Hill slope 0.306, Maximum measured 1.238 %, Maximum response 100 %, Minimum measured 0.01 %, R squared 0.111
  EC90: < 391 nM
Dengue virus type 2 [8]; Baseline response 0 %, Hill slope 1.135, Maximum measured 0.49 %, Maximum response 100 %, Minimum measured 0.132 %, R squared 0.538
  EC90: < 391 nM
Dengue virus type 2 [8]; Dengue virus, Vero C1008
  EC50: < 391 nM
Dengue virus type 2 [8]; Dengue virus, Vero C1008, Maximum measured 0.33 %, Minimum measured 0.072 %
  EC90: < 391 nM
Dengue virus type 2 [8]; Dengue virus, Vero C1008, Baseline response 0 %, Hill slope 0.447, Maximum measured 0.846 %, Maximum response 100 %, Minimum measured 0.033 %, R squared 0.302
  EC90: < 391 nM
